Assay results: patent US5496546A, “Compositions and methods of application of reactive antiviral polyadenylic acid derivatives” (priority 1994, dated 1996)

How the values were obtained:
HIV RT = target: T1, HIV RT (Human immunodeficiency virus type 1 group M subtype B, UniProt P04585); assay: Inhibition of viral reverse transcriptase in solution, HIV RT; format: biochemical
T1 construct: Reverse transcriptase samples from HIV (HIV RT)
Method: Reverse transcriptase samples from HIV (HIV RT) and from Moloney murine leukemia virus (MLV RT) and from avian myeloblastosis virus (AMV RT) were separately incubated with FDNP-poly[A] at 25° C. in a Tris-HCl buffer (0.1M, pH 8.2) containing 1 mM MgCl2 and 125 mM KCl and measured for RT activity. In each experiment, the selected enzyme was incubated for 10 minutes at 25° C. in an incubation mixture containing the potassium salt of the inhibitor at a given concentration. After ten minutes the incubated mixture was rapidly injected into an assay solution and further incubated for 10 min at 37° C., then precipitated with trichloroacetic acid, washed, and assayed for the radioactive polynucleotide formed by scintillation counting. The assay mixture contained 125 mM Tris-HCl (pH 8.2), 1 mM MgCl2, 125 mM KCl, 250 μM [^3 H]dTTP as the substrate and 23 nM Poly[A]-[dT],12 as the template.
Similar results were obtained with DNP-poly[A].

murine leukemia RT = murine leukemia RT (Moloney murine leukemia virus, UniProt P03355); settings: cited from earlier work
HIV-1 RT (wild type) = target: T2, HIV-1 RT (wild type) (Human immunodeficiency virus type 1 group M subtype B, UniProt P04585); assay: Inhibition of different HIV RTs, poly C-[dG]12-18 template; format: biochemical; settings: poly C-[dG]12-18, [^3 H]dGTP; approximate
T2 construct: HIV-1 RT (wild type)

HIV-2 (wild type) = target: T3, HIV-2 (wild type) (Human immunodeficiency virus type 2 subtype A, UniProt P04584); assay: as above; format: biochemical; settings: poly C-[dG]12-18, [^3 H]dGTP; approximate
T3 construct: with the RT from four different strains of the human virus: HIV-1 RT (wild type), HIV-2 (wild type)

[1] = target: HIV-141,215 RT (AZT-resistant mutant, Thr 215→Tyr, Met 41→Leu) (Human immunodeficiency virus type 1 group M subtype B, UniProt P04585, M628L/T802Y); assay: as above; format: biochemical, HIV-1; settings: poly C-[dG]12-18, [^3 H]dGTP; approximate
[2] = target: T4, HIV-1181c RT (Nevirapine-resistant mutant) (Human immunodeficiency virus type 1 group M subtype B, UniProt P04585, Y768C); assay: as above; format: biochemical, HIV-1; settings: poly C-[dG]12-18, [^3 H]dGTP; approximate
T4 construct: HIV-1181c RT (Nevirapine-resistant mutant)

T3 sequence (P04584 613-1171 limits assumed): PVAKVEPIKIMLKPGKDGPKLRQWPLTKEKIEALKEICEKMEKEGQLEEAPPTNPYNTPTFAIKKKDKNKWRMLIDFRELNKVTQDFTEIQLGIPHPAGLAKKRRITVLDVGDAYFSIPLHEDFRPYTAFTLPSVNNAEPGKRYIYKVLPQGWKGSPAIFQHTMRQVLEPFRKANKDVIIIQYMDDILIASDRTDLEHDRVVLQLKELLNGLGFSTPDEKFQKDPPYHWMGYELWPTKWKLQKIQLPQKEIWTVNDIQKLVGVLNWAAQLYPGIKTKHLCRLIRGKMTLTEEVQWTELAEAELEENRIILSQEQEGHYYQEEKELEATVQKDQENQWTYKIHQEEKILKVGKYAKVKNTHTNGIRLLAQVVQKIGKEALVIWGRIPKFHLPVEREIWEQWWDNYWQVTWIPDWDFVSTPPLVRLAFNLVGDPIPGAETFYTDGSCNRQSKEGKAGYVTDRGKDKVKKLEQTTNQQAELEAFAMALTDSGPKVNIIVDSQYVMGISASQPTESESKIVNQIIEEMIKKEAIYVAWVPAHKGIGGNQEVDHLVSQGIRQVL
T3 sequence (P04584 613-1052 partner limits assumed): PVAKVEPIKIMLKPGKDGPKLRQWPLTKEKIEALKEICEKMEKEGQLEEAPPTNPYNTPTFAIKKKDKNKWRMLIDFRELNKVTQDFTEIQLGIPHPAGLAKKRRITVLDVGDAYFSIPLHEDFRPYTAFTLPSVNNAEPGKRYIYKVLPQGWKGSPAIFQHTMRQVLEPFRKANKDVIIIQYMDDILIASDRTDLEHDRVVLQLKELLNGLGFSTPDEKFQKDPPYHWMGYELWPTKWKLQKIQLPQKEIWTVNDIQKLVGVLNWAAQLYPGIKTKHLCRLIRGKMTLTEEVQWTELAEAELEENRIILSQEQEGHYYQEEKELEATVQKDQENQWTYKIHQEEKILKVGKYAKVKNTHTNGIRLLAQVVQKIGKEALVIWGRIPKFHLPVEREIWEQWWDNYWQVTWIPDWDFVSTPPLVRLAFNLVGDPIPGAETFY

## Nc1ncnc2c1ncn2[C@@H]1O[C@H](COP(=O)(O)OP(=O)(O)O)[C@@H](Oc2cc(F)c([N+](=O)[O-])cc2[N+](=O)[O-])[C@H]1O [3'-O-(5-fluoro-2,4-dinitrophenyl) ADP ether]
HIV RT
  molar concentration required to inhibit HIV RT: million-fold higher molar concentration

## Nc1ncnc2c1ncn2[C@@H]1O[C@H](COP(=O)(O)OP(=O)(O)OP(=O)(O)O)[C@@H](Oc2cc(F)c([N+](=O)[O-])cc2[N+](=O)[O-])[C@H]1O [the corresponding ATP ether, 3'-O-(5-fluoro-2,4-dinitrophenyl) ATP ether]
HIV RT
  molar concentration required to inhibit HIV RT: million-fold higher molar concentration

## poly(2-fluoroadenylic acid) [(fl^2 A)n]
Murine leukemia RT
  IC50: 0.04 µg/mL

## polyadenylic acid (5') [Poly[A]]
HIV-1 RT (wild type)
  IC50 of the RT, HIV-1 (wild): no inhibitory effect
HIV-2 (wild type)
  IC50 of the RT, HIV-2 (wild): no inhibitory effect
[1]
  IC50 of the RT, HIV-141,215: no inhibitory effect
[2]
  IC50 of the RT, HIV-1181C: no inhibitory effect
